Assay results: the supplement of paper PMC9013687

Experiments:
Danio rerio embryo [1] = tested on: Danio rerio embryo
Protocol: (§1)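 Zebrafish embryos (UFZ-OBI strain) were exposed from 2 hpf for 48 h (2 dpf) or 96 h (4 dpf) at 28 °C; spontaneous tail coiling was scored at 25 hpf. Morphological features from automated image analysis (FishInspector), heart rate and locomotor response were fitted with drc models. Quantal endpoints were dichotomised at 2.5 SD from controls and fitted with a log-logistic model; heart rate, pigmentation and STC were normalised to the replicate control mean. Betamethasone was tested as betamethasone dipropionate, diflorasone as diflorasone diacetate.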

Danio rerio embryo [2] = settings: exposure time: 4 dpf
Protocol: as §1

Danio rerio embryo [3] = assay: EC50 Curvature_Increase
Protocol: as §1

Danio rerio embryo [4] = assay: EC50 Body length_Decrease
Protocol: as §1

Danio rerio embryo [5] = assay: EC50 Bladder size_Decrease; settings: exposure time: 4 dpf
Protocol: as §1

Danio rerio embryo [6] = assay: EC50 Pericard size_Increase
Protocol: as §1

Danio rerio embryo [7] = assay: EC50 Yolk sac size_Increase; settings: exposure time: 4 dpf
Protocol: as §1

Danio rerio embryo [8] = assay: EC50 Eye-jaw distance_Decrease; settings: exposure time: 4 dpf
Protocol: as §1

Danio rerio embryo [9] = assay: EC50 Otolith-eye distance_Decrease; settings: exposure time: 4 dpf
Protocol: as §1

Danio rerio embryo [10] = assay: EC10 LMR dark; higher = less potent; settings: exposure time: 4 dpf
Protocol: as §1

Danio rerio embryo [11] = assay: EC20 LMR dark; higher = less potent; settings: exposure time: 4 dpf
Protocol: as §1

Danio rerio embryo [12] = assay: EC20 Any effect; higher = less potent
Protocol: as §1

Danio rerio embryo [13] = assay: EC10 Any effect; higher = less potent
Protocol: as §1

Danio rerio embryo [14] = assay: EC10 Curvature_Increase; higher = less potent
Protocol: as §1

Danio rerio embryo [15] = assay: EC20 Curvature_Increase; higher = less potent
Protocol: as §1

Danio rerio embryo [16] = assay: EC20 Body length_Decrease; higher = less potent
Protocol: as §1

Danio rerio embryo [17] = assay: EC10 Body length_Decrease; higher = less potent
Protocol: as §1

Danio rerio embryo [18] = assay: EC10 Bladder size_Decrease; higher = less potent; settings: exposure time: 4 dpf
Protocol: as §1

Danio rerio embryo [19] = assay: EC20 Bladder size_Decrease; higher = less potent; settings: exposure time: 4 dpf
Protocol: as §1

Danio rerio embryo [20] = assay: EC20 Yolk sac size_Increase; higher = less potent; settings: exposure time: 4 dpf
Protocol: as §1

Danio rerio embryo [21] = assay: EC20 Pericard size_Increase; higher = less potent
Protocol: as §1

Danio rerio embryo [22] = assay: EC10 Yolk sac size_Increase; higher = less potent; settings: exposure time: 4 dpf
Protocol: as §1

Danio rerio embryo [23] = assay: EC10 Pericard size_Increase; higher = less potent
Protocol: as §1

Danio rerio embryo [24] = assay: EC20 Eye-jaw distance_Decrease; higher = less potent; settings: exposure time: 4 dpf
Protocol: as §1

Danio rerio embryo [25] = assay: EC10 Eye-jaw distance_Decrease; higher = less potent; settings: exposure time: 4 dpf
Protocol: as §1

Danio rerio embryo [26] = assay: EC20 Otolith-eye distance_Decrease; higher = less potent; settings: exposure time: 4 dpf
Protocol: as §1

Danio rerio embryo [27] = assay: EC10 Otolith-eye distance_Decrease; higher = less potent; settings: exposure time: 4 dpf
Protocol: as §1

Danio rerio embryo [28] = assay: spontaneous tail coiling frequency (coils/min/embryo); higher = more spontaneous movement; settings: 25 hpf
Protocol: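 Spontaneous tail coilings of zebrafish embryos exposed from 2 hpf were recorded at 24-25 hpf in 1-min videos and detected by a KNIME workflow from grey-value variance. Betamethasone was tested as the dipropionate, diflorasone as the diacetate.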

O=C(O)CCc1nc(-c2ccccc2)c(-c2ccccc2)o1 [Oxaprozin]
Settings | EC10 Any effect [µM] | EC10 Body length Decrease [µM] | EC10 Curvature Increase [µM] | EC10 Pericard size Increase [µM] | EC20 Any effect [µM] | EC20 Body length Decrease [µM] | EC20 Curvature Increase [µM] | EC20 Pericard size Increase [µM] | EC50 Any effect [µM] | EC50 Body length Decrease [µM] | EC50 Curvature Increase [µM] | EC50 Pericard size Increase [µM] | EC50 Pigmentation increase [µM] | spontaneous tail coiling frequency
Danio rerio embryo [1], exposure time: 2 dpf | – | – | – | – | – | – | – | – | 30.2 | – | – | – | – | –
Danio rerio embryo [1], exposure time: 4 dpf | – | – | – | – | – | – | – | – | 20.2 | – | – | – | 35.6 | –
Danio rerio embryo [3], exposure time: 2 dpf | – | – | – | – | – | – | – | – | – | – | 61.4 | – | – | –
Danio rerio embryo [3], exposure time: 4 dpf | – | – | – | – | – | – | – | – | – | – | 30.8 | – | – | –
Danio rerio embryo [4], exposure time: 2 dpf | – | – | – | – | – | – | – | – | – | 38 | – | – | – | –
Danio rerio embryo [4], exposure time: 4 dpf | – | – | – | – | – | – | – | – | – | 27.1 | – | – | – | –
Danio rerio embryo [6], exposure time: 2 dpf | – | – | – | – | – | – | – | – | – | – | – | 55.9 | – | –
Danio rerio embryo [6], exposure time: 4 dpf | – | – | – | – | – | – | – | – | – | – | – | 19.1 | – | –
Danio rerio embryo [12], exposure time: 2 dpf | – | – | – | – | 19.3 | – | – | – | – | – | – | – | – | –
Danio rerio embryo [12], exposure time: 4 dpf | – | – | – | – | 15.3 | – | – | – | – | – | – | – | – | –
Danio rerio embryo [13], exposure time: 2 dpf | 14.9 | – | – | – | – | – | – | – | – | – | – | – | – | –
Danio rerio embryo [13], exposure time: 4 dpf | 13 | – | – | – | – | – | – | – | – | – | – | – | – | –
Danio rerio embryo [14], exposure time: 2 dpf | – | – | 28.7 | – | – | – | – | – | – | – | – | – | – | –
Danio rerio embryo [14], exposure time: 4 dpf | – | – | 21.8 | – | – | – | – | – | – | – | – | – | – | –
Danio rerio embryo [15], exposure time: 2 dpf | – | – | – | – | – | – | 38 | – | – | – | – | – | – | –
Danio rerio embryo [15], exposure time: 4 dpf | – | – | – | – | – | – | 24.8 | – | – | – | – | – | – | –
Danio rerio embryo [16], exposure time: 2 dpf | – | – | – | – | – | 29.3 | – | – | – | – | – | – | – | –
Danio rerio embryo [16], exposure time: 4 dpf | – | – | – | – | – | 21.8 | – | – | – | – | – | – | – | –
Danio rerio embryo [17], exposure time: 2 dpf | – | 25.1 | – | – | – | – | – | – | – | – | – | – | – | –
Danio rerio embryo [17], exposure time: 4 dpf | – | 19.3 | – | – | – | – | – | – | – | – | – | – | – | –
Danio rerio embryo [21], exposure time: 2 dpf | – | – | – | – | – | – | – | 38.6 | – | – | – | – | – | –
Danio rerio embryo [21], exposure time: 4 dpf | – | – | – | – | – | – | – | 14.1 | – | – | – | – | – | –
Danio rerio embryo [23], exposure time: 2 dpf | – | – | – | 31.1 | – | – | – | – | – | – | – | – | – | –
Danio rerio embryo [23], exposure time: 4 dpf | – | – | – | 11.8 | – | – | – | – | – | – | – | – | – | –
Danio rerio embryo [28], 15.2 µM | – | – | – | – | – | – | – | – | – | – | – | – | – | 4.43
Danio rerio embryo [28], 17 µM | – | – | – | – | – | – | – | – | – | – | – | – | – | 3.98
Danio rerio embryo [28], 22.7 µM | – | – | – | – | – | – | – | – | – | – | – | – | – | 4.29
Danio rerio embryo [28], 34.1 µM | – | – | – | – | – | – | – | – | – | – | – | – | – | 4.85
Danio rerio embryo [28], 51.1 µM | – | – | – | – | – | – | – | – | – | – | – | – | – | 5.84
Danio rerio embryo [28], 68.2 µM | – | – | – | – | – | – | – | – | – | – | – | – | – | 4.34
Danio rerio embryo [28], 85.2 µM | – | – | – | – | – | – | – | – | – | – | – | – | – | 8.82
Danio rerio embryo [28], 102.3 µM | – | – | – | – | – | – | – | – | – | – | – | – | – | 6.78

Settings | EC10 Bladder size Decrease [µM] | EC10 Eye-jaw distance Decrease [µM] | EC10 LMR dark [µM] | EC10 Otolith-eye distance Decrease [µM] | EC10 Yolk sac size Increase [µM] | EC20 Bladder size Decrease [µM] | EC20 Eye-jaw distance Decrease [µM] | EC20 LMR dark [µM] | EC20 Otolith-eye distance Decrease [µM] | EC20 Yolk sac size Increase [µM] | EC50 Bladder size Decrease [µM] | EC50 Eye-jaw distance Decrease [µM] | EC50 LMR dark [µM] | EC50 Otolith-eye distance Decrease [µM] | EC50 Yolk sac size Increase [µM]
Danio rerio embryo [2] | – | – | – | – | – | – | – | – | – | – | – | – | 16.2 | – | –
Danio rerio embryo [5] | – | – | – | – | – | – | – | – | – | – | 12.2 | – | – | – | –
Danio rerio embryo [7] | – | – | – | – | – | – | – | – | – | – | – | – | – | – | 22.6
Danio rerio embryo [8] | – | – | – | – | – | – | – | – | – | – | – | 21.5 | – | – | –
Danio rerio embryo [9] | – | – | – | – | – | – | – | – | – | – | – | – | – | 24.8 | –
Danio rerio embryo [10] | – | – | 11.8 | – | – | – | – | – | – | – | – | – | – | – | –
Danio rerio embryo [11] | – | – | – | – | – | – | – | 13.3 | – | – | – | – | – | – | –
Danio rerio embryo [18] | 11.5 | – | – | – | – | – | – | – | – | – | – | – | – | – | –
Danio rerio embryo [19] | – | – | – | – | – | 11.8 | – | – | – | – | – | – | – | – | –
Danio rerio embryo [20] | – | – | – | – | – | – | – | – | – | 16.3 | – | – | – | – | –
Danio rerio embryo [22] | – | – | – | – | 13.4 | – | – | – | – | – | – | – | – | – | –
Danio rerio embryo [24] | – | – | – | – | – | – | 15.4 | – | – | – | – | – | – | – | –
Danio rerio embryo [25] | – | 12.7 | – | – | – | – | – | – | – | – | – | – | – | – | –
Danio rerio embryo [26] | – | – | – | – | – | – | – | – | 19.2 | – | – | – | – | – | –
Danio rerio embryo [27] | – | – | – | 16.5 | – | – | – | – | – | – | – | – | – | – | –
